In PMC10609944, “Development of a Dosage form for a Photoswitchable Local Anesthetic Ethercaine” (Pharmaceuticals, 2023):
Values after ≈ are worked out from the molar mass of the structure shown. Where a name gives a salt, the structure may show the parent alone. Read-outs that look alike come from different tables or passages of the source. Marks after values point to notes of the source that are not given here.

How the values were obtained:
[1] = Solubilization of ethercaine: maximum solubility; assay type: physicochemical
Source text: Since ETH itself, as a free base, is virtually insoluble in water and only partially soluble in 4% solution of Kolliphor ELP, at the first stage it was decided to study the effects of increasing the concentration of Kolliphor ELP and replacing it with Pluronic F127. Pluronic F127 is also an FDA-approved solubilizer of a different nature to the Kolliphor ELP, so it was selected as an alternative solubilizer for the study. Both substances are surfactants capable of forming direct micelles in aqueous solutions for loading hydrophobic compounds that are sparingly soluble in water. We chose a 4% concentration of Kolliphor ELP as the initial concentration that is suitable for the solubilization of hydrophobic dyes but is safe for clinical use, including for intravenous administration. In the case of other administration routes, for example, for ophthalmic use, this concentration can be increased. For further studies, we chose a 10% concentration of Kolliphor ELP. Despite an almost two-fold increase in the maximum solubility of ETH (Table 1) with an increase in the concentration of Kolliphor ELP from 4% to 10%, data on biological activity indicated an unstable and undulating local anesthetic effect on the cornea of the rabbit eye according to the Regnier method, which appeared to be due to the delayed drug release at high surfactant concentrations.
At the next stage of the solubility study, micelle-forming solubilizers and an anesthetic in the form of the ETH·HCl salt were used.
A solution of 4-(2-(N-morpholino)-ethoxy)-azobenzene hydrochloride (2) (50.0 mg) in dichloromethane (2 mL) was added dropwise to a freshly prepared 4% aqueous solution of solubilizer (Kolliphor® ELP or Pluronic F127) (5 mL) heated to 45 °C with continuous argon bubbling. Bubbling was continued until strong foaming started. A clear orange solution with a concentration of 1.0% was obtained, which was subsequently filtered in turn through 0.45 µm PTFE filter and then through 0.22 µm PTFE filter.

[2] = set-up: method as in PMID 35628162; settings: in 4% Kolliphor ELP; cited from earlier work
[3] = Spectrophotometric determination of Z→E half-transformation time (t1/2) in solutions; assay type: physicochemical; settings: after 365 nm irradiation, thermal back Z→E, room temperature
Description: This parameter depends on a number of conditions, including the solvent; therefore, at the next stage, the effect of the solubilizer on the t1/2 value was examined. The study was carried out by a standard method using UV/Vis spectrophotometry. At the beginning of the experiment, the spectrum of the initial photostationary state (PSS) with predominance of the E-form was recorded, after which the solution was irradiated with UV light (λ = 365 nm) and the spectrum of the resulting PSS, with predominance of the Z-form, was recorded.
Next, the rate of reverse isomerization was monitored by measuring the absorption intensity at 5 min intervals. […]
UV/Vis spectroscopy was used for the time determination of Z-isomers’ half-lifes. […] Then, lnAt/A0 values were calculated using Equation (1):(1) lnAt/A0=lnAbsPSS(dark)−Abstime/AbsPSS(dark)−AbsPSS(365nm), where AbsPSS(dark) , AbsPSS(365nm), and Abstime are absorbance values at λmax(E) in the dark at the beginning of the experiment, after UV light (λ = 365 nm) irradiation and at different time points from 0 to 60 min, respectively. Then, a graph was plotted depending on the lnAt/A0 values from the time, a trend line was calculated and a first-order rate constant (k) for the thermal back Z–E isomerization reaction was obtained as the slope of the trend line. […]

rabbit eye cornea [4] = experiment: Local anesthetic activity, surface anesthesia on rabbit eye cornea, Regnier method; settings: solutions irradiated with UV light λ = 365 nm vs dark
Source text: The essence of the method is to estimate the number of eye closures during the tactile exposure of the cornea of a rabbit’s eye. According to the method, four animals (eight experimental points) were selected for each group, except two groups with a negative control. For the latter two animals (four experimental points) were used due to the lack of the activity and to minimize the number of animals in the experiment. The animals were randomly divided into four experimental (1% ETH·HCl in 4% Kolliphor ELP or in 4% Pluronic F127, two modes with and without UV irradiation) and four control groups (4% Kolliphor ELP or 4% Pluronic F127, two modes with and without UV irradiation).
For determination of the sensitivity of rabbit eye cornea using the surface anesthesia method, a total of four rabbits with a basic sensitivity threshold of 1–2 touches were selected. […]
Before the experiment began, the animal was restrained, leaving only its head free. The eyelashes were cut and the sensitivity threshold was determined for each eye. […] After that, the sensitivity threshold of the eye cornea to tactile impact was determined. […] Each time, tactile stimulation of the same strength and rhythm was applied to the cornea and the minimum number of touches causing the eyelids to close (but no more than 100 touches and no longer than for 1 min) was recorded.

rabbit eye cornea [5] = test system: rabbit eye cornea; set-up: method as in PMID 35628162; settings: n = 8, cited from earlier work
[6] = aqueous micellar solution of Kolliphor ELP, aqueous with cosolvent or surfactant or cyclodextrin, 4% micellar solution of Kolliphor ELP, read-out: Maximum Solubility of Ethercaine
[7] = aqueous micellar solution of Pluronic F127, aqueous with cosolvent or surfactant or cyclodextrin, 4% micellar solution of Pluronic F127, read-out: Maximum Solubility of Ethercaine
[8] = water without excipients, water, no excipients, read-out: Maximum Solubility of Ethercaine

| solubility [1, 6] [µg/mL] | solubility ([1]; aqueous micellar solution of Kolliphor ELP, aqueous with cosolvent or surfactant or cyclodextrin, 10% micellar solution of Kolliphor ELP, read-out: Maximum Solubility of Ethercaine) [µg/mL] | solubility [1, 7] [µg/mL] | solubility ([1]; before development of the dosage form) [%] | solubility of the anesthetic in water ([1]; before the hydrochloride micellar dosage forms) [wt.%] | solubility ([1]; developed dosage form) [%] | solubility of the anesthetic in water ([1]; dosage forms based on micellar solutions of Kolliphor ELP and Pluronic F127) [wt.%] | solubility [1, 8] [µg/mL] | solubility ([1]; aqueous micellar solution of Kolliphor ELP, 4% micellar solution of Kolliphor ELP, read-out: Maximum Solubility of Ethercaine) [µg/mL] | solubility ([1]; aqueous micellar solution of Pluronic F127, 4% micellar solution of Pluronic F127, read-out: Maximum Solubility of Ethercaine) [µg/mL] | Half-Transformation Time (t1/2) ([3]; 4% micellar solution of Kolliphor ELP) [h] | Half-Transformation Time (t1/2) ([3]; 4% micellar solution of Pluronic F127) [h] | Compound | maximum concentration such that the solution remained stable [2] [wt.%] | decrease in the local anesthetic effect on UV irradiation (factor) (rabbit eye cornea [4]) | Regnier Index (Min—13, Max—1300) (rabbit eye cornea [5]; Dark) | Regnier Index (Min—13, Max—1300) (rabbit eye cornea [5]; UV λ = 365 nm) |
| --- | --- | --- | --- | --- | --- | --- | --- | --- | --- | --- | --- | --- | --- | --- | --- | --- |
| 6000 (≈ 19.3 mM) | 10000 (≈ 32.1 mM) | 7000 (≈ 22.5 mM) | 0.6 | 0.6 | ≥ 2 | ≥ 2 | < 1000 |  |  |  |  | c1ccc(N=Nc2ccc(OCCN3CCOCC3)cc2)cc1 [ETH, 4-(2-(N-Morpholino)-ethoxy)-azobenzene] | 0.6 |  |  |  |
| > 20000 |  | > 20000 |  |  |  |  | 6000 | ≥ 20000 | ≥ 20000 | 0.85 | 1.15 | c1ccc(/N=N/c2ccc(OCCN3CCOCC3)cc2)cc1 [ETH·HCl, 4-(2-(N-Morpholino)-Ethoxy)-Azobenzene Hydrochloride] |  | 16–20 |  |  |
|  |  |  |  |  |  |  |  |  |  |  |  | CCN(CC)CC(=O)Nc1c(C)cccc1C [2% lidocaine hydrochloride, lidocaine hydrochloride] |  |  | 451 ± 40 (n = 8) ^a | 469 ± 37 (n = 8) ^a |
